Measured values: US7598294B2, “3,4-methylenedioxy-substituted chalcones as therapeutic agents” (Spear Therapeutics Limited, priority 2001, dated 2009)
pIC50: −log10 of the molar value. Read-outs that look alike come from different tables or passages of the source. Each block holds one molecule with its values, some of them ahead of it.

Tests used:
[1] = MCF-10A normal cell line cytotoxicity assay; assay type: cell-based, human; details: human, MCF-10A normal breast cells; without TCDD
[2] = system: MDA-468 (Breast Tumor); assay: MDA-468 tumour cell line cytotoxicity assay; details: for Tumor Selectivity Differential Factor: IC50 MCF-10A / IC50 MDA-468, fold more toxic to cancer cells than to normal cells
Protocol: MDA-468 Tumour Cell Line Versus MCF-10A Normal Cell Line Assay
This cell culture based assay is performed using the two cell lines MDA-468 and MCF-10A. The MDA-468 cell line is an advanced breast cancer cell line, whilst the MCF-10A cell line is a normal breast cell line.
The tumour selectivity differential factor(TSDF) is calculated by dividing the IC50 obtained from the MCF-10A data by the IC50 obtained from the MDA-468 data.

[3] = MCF-7 cell line (non-induced) cytotoxicity assay (MTT); assay type: cell-based; details: human, MCF-7 breast tumour cells, non-induced (no TCDD), non-induced MCF-7 cells
[4] = system: TCDD-induced MCF-7 cells; assay: TCDD-induced MCF-7 cell line cytotoxicity assay (MTT); details: for Tumor Selectivity Differential Factor: IC50 MCF-7 cells / IC50 TCDD-induced MCF-7 cells, fold more toxic to "tumour" cells than to "normal" cells; for pIC50: read-out: Cytotoxicity TCDD-induced MCF-7 Cells IC50, 10 nM TCDD for 24 hours, then 96 hours with compound, MTT
Protocol: TCDD-Induced MCF-7 Cell Line Versus MCF-7 Cell Line Cytotoxicity Assay
1×10^3 cells were plated out in 100 μl medium per well of 96-well flat-bottomed plates (Fisher). […] The medium was then carefully aspirated and 100 μl fresh medium added. […] 50 μl MTT (Thiazol blue, Sigma) at 2 mg/ml in Dulbecco's phosphate buffered saline-A, was then added to each well for 3 hours: All medium was aspirated, then the formazan product generated by viable cells was solubilized with 150 μl DMSO. Plates were vortexed and the absorbance at 540 nm determined using a plate reader. […] All determinations were carried out in at least triplicate.

[5] = system: MCF-10A (Normal Breast); assay: MCF-10A normal cell line cytotoxicity assay; assay type: cell-based, human; details: Homo sapiens, MCF-10A, read-out: IC50 against the normal cell line
[6] = system: breast cancer MCF-7 cells; assay: Intrinsic activity of prodrug and hydroxylated metabolite in breast cancer MCF-7 cells; assay type: cell-based; details: Homo sapiens, MCF7; prodrug versus hydroxylated metabolite
[7] = system: K562; details: antitumour activity; cited from earlier work
[8] = read-out: Cytotoxicity MDA-468 (Breast Tumor) IC50, without TCDD

Structure (SMILES): CC/C(=C(\c1ccccc1)c1ccc(OCCN(C)C)cc1)c1ccccc1 [Tamoxifen, tamoxifen]
IC50 at 96 h [1]: 6300 nM
Tumor Selectivity Differential Factor [2]: 1.6
pIC50 [2, 8]: 5.40

Structure (SMILES): COc1cc(OC)cc(C(=O)/C=C/c2ccc3c(c2)OCO3)c1 [DMU-403, (E)-1-(3,4-methylenedioxyphenyl)-3-(3,5-dimethoxyphenyl)prop-1-en-3-one]
IC50 at 96 h [3]: 3500 nM
Tumor Selectivity Differential Factor [4]: 6
pIC50 [4]: 6.24

Structure (SMILES): COc1ccc(C(=O)/C=C/c2ccc3c(c2)OCO3)c(OC)c1OC [DMU-419, (E)-1-(3,4-methylenedioxyphenyl)-3-(2,3,4-trimethoxyphenyl)prop-1-en-3-one]
IC50 at 96 h [3]: 2800 nM
Tumor Selectivity Differential Factor [4]: 3
pIC50 [4]: 6.08

Structure (SMILES): CN(Cc1cnc2nc(N)nc(N)c2n1)c1ccc(C(=O)N[C@@H](CCC(=O)O)C(=O)O)cc1 [Methotrexate, methotrexate]
IC50 at 96 h [1]: 60 nM
Tumor Selectivity Differential Factor [2]: 1.5
pIC50 [2, 8]: 7.40

Structure (SMILES): COc1ccc(OC)c(C(=O)/C=C/c2ccc3c(c2)OCO3)c1 [DMU-423, (E)-1-(3,4-methylenedioxyphenyl)-3-(2,5-dimethoxyphenyl)prop-1-en-3-one]
IC50 at 96 h [3]: 3500 nM
melting point: 101 °C
Tumor Selectivity Differential Factor [4]: 13
pIC50 [4]: 6.59

Structure (SMILES): COc1cc(C(=O)/C=C/c2ccc3c(c2)OCO3)cc(OC)c1OC [DMU-135, (E)-1-(3,4-Methylenedioxyphenyl)-3-(3,4,5-trimethoxyphenyl)prop-1-en-3-one]
IC50 at 96 h [3]: 920 nM
pIC50 [5]: 5.64
melting point: 135 °C
Tumor Selectivity Differential Factor [2]: 120
pIC50 ([2]; read-out: IC50 against the advanced tumour cell line, MDA-468, FIG. 2): 7.70
Tumor Selectivity Differential Factor [4]: 65

pIC50 [6]: 9.19
Structure (SMILES): COc1cc(OC)cc(C(=O)/C=C/c2ccc(OC)c(O)c2)c1 [(E)-1-(3-Hydroxy-4-methoxyphenyl)-3-(3,5-dimethoxyphenyl) prop-1-en-3-one]

Structure (SMILES): COc1cccc2c1C(=O)c1c(O)c3c(c(O)c1C2=O)C[C@@](O)(C(=O)CO)C[C@@H]3O[C@H]1C[C@H](N)[C@H](O)[C@H](C)O1 [Doxorubicin, doxorubicin]
IC50 at 96 h [1]: 0.3 nM
Tumor Selectivity Differential Factor [2]: 0.1
fold more toxic to normal cells than to cancer cells ([2]; MCF-10A versus MDA-468): 10 fold
pIC50 [2, 8]: 8.52

Structure (SMILES): CC(=O)/C=C/c1ccc(O)cc1 [(E)-1-(4′-hydroxyphenyl)but-1-en-3-one]
pIC50 [7]: 4.22

melting point: 137 °C
Structure (SMILES): COc1ccc(C(=O)/C=C/c2ccc3c(c2)OCO3)c(OC)c1 [DMU-407, (E)-1-(3,4-methylenedioxyphenyl)-3-(2,4-dimethoxyphenyl)prop-1-en-3-one]
IC50 at 96 h [3]: 7000 nM
Tumor Selectivity Differential Factor [4]: 3
pIC50 [4]: 5.57

pIC50 [6]: 6.16
Structure (SMILES): COc1ccc(/C=C/C(=O)c2cc(OC)cc(OC)c2)cc1 [(E)-1-(4-methoxyphenyl)-3-(3,5-dimethoxyphenyl)prop-1-en-3-one]
